In patent US5401772A, “Heteroacetic acid derivatives” (Ciba-Geigy Corporation, priority 1993, dated 1995) one finds minimal effective dose data, which are given here for two compounds.

What all share (assay type): in vivo
Test [1] relates to serum cholesterol. In words: Cholesterol-lowering activity in normocholesterolemic dogs. The following applies: Canis lupus familiaris, po, 120 h, dog, p.o., 5 days, regular chow, read-out: daily dose that significantly lowers serum cholesterol. How it is done:
(§1) Male Sprague-Dawley rats (230-250 g) (Taconic Farms) are maintained ad libium on water and a high cholesterol diet (1.5% cholesterol and 0.5% cholic acid) for two weeks prior to and during the 7-day treatment period. Groups of animals are treated orally by gavage with the vehicle alone or with test compound for 7 consecutive days. After the host dose, animals are fasted for 18 hours and blood is collected. Blood samples are centrifuged at 2500 rpm for 10 minutes to prepare plasma for total cholesterol determination as well as LDL and HDL cholesterol concentrations. HDL values are determined after LDL/VLDL precipitation (Warnick and Albers, 1978). All samples are analyzed enzymatically for cholesterol with a diagnostic reagent kit (Sigma Chemical Co., St. Louis, MO). The analysis is performed on a Bio-Mek automated work station. […] The samples are vortexed and are placed on ice for 15 minutes, then centrifuged at 4° C. for 10 minutes at 1300 rpm and the supernatant is enzymatically analyzed for cholesterol. […]
(§2) Cholesterol-lowering activity can also be evaluated in normocholesterolemic dogs fed regular chow following the procedure described above, by administration of test compound orally for 5 days; also in normolipomic cynomolgus monkeys.

For test [2], the system named is serum cholesterol. In words: Cholesterol lowering activity in the rat (high cholesterol diet). As to conditions: po, 168 h, p.o., 7 consecutive days, read-out: daily dose that significantly lowers serum cholesterol. As for the experimental part: Cholesterol lowering activity is determined in the rat as follows:
Male Sprague-Dawley rats (230-250 g) (Taconic Farms) are maintained ad libium on water and a high cholesterol diet (1.5% cholesterol and 0.5% cholic acid) for two weeks prior to and during the 7-day treatment period. Groups of animals are treated orally by gavage with the vehicle alone or with test compound for 7 consecutive days. After the host dose, animals are fasted for 18 hours and blood is collected. Blood samples are centrifuged at 2500 rpm for 10 minutes to prepare plasma for total cholesterol determination as well as LDL and HDL cholesterol concentrations. HDL values are determined after LDL/VLDL precipitation (Warnick and Albers, 1978). All samples are analyzed enzymatically for cholesterol with a diagnostic reagent kit (Sigma Chemical Co., St. Louis, MO). The analysis is performed on a Bio-Mek automated work station. LDL/VLDL fractions are precipitated in the following manner: 0.35 ml of plasma is aliquoted into Eppendorf tubes to which 12 μl of 2M manganese chloride, 11.2 μl of sodium heparin (Porcine Intestinal, 5000 units/ml), and 8.3 μl of normal saline are added. The samples are vortexed and are placed on ice for 15 minutes, then centrifuged at 4° C. for 10 minutes at 1300 rpm and the supernatant is enzymatically analyzed for cholesterol. […]

Test [3] has as its system serum cholesterol. In words: Cholesterol-lowering activity in normolipomic cynomolgus monkeys. The following applies: Macaca fascicularis, po, monkey, p.o., read-out: daily dose that significantly lowers serum cholesterol. As for the experimental part: as §1, §2

Structures are written as SMILES.

Take `CCOC(=O)C(=O)Nc1cc(C)c(Oc2ccc(O)c(C(O)c3ccc(F)cc3)c2)c(C)c1` (centres unmarked) [ethyl N-[4-[3'-[(4-fluorophenyl) hydroxymethyl]-4'-hydroxyphenoxy]-3,5-dimethylphenyl]oxamate]: the minimal effective dose in the test with serum cholesterol [1] is about 0.01 mg/kg/day; in the test on serum cholesterol [2] it was about 0.005 mg/kg/day; in the test with serum cholesterol [3] it was about 0.001 mg/kg/day.
Take `Cc1cc(NC(=O)C(=O)O)cc(C)c1Oc1ccc(O)c(C(C)C)c1` [N-[3,5-dimethyl-4-(4'-hydroxy-3'-isopropylphenoxy)-phenyl]oxamic acid]: the minimal effective dose with serum cholesterol [1] is about 0.03 mg/kg/day; in the test with serum cholesterol [2], about 0.02 mg/kg/day.
